In general, IC50 refers to the point on the concentration scale where inhibition reaches its midpoint. A higher IC50 goes with a need for much substance.

For the assay, the target named is HIF PHD2 (Homo sapiens, UniProt Q9GZT9). Put plainly: PHD2 inhibition assay (TR-FRET, VCB-Eu detection of hydroxylated P564-HIF1α peptide). The assay is classed as biochemical. The following applies: 2 nM PHD2, 100 nM P564-HIF1α peptide, 0.25 μM 2-oxoglutarate, 100 μM FeCl2, 2 mM ascorbic acid. The protocol: Inhibition of HIF PHD2 activity was quantified utilizing the TR-FRET technology. HIF PHD2 catalyzes a hydroxyl modification on the proline residue of the P564-HIF1α peptide substrate (Biotin-DLEMLAPYIPMDDDFQL (SEQ ID NO: 7)) resulting in recognition and binding of the europylated Von Hippel-Lindau protein (pVHL), elongin B and elongin C heterotrimeric (VCB-Eu) complex.
Chain of HIF PHD2 (Q9GZT9 whole entry): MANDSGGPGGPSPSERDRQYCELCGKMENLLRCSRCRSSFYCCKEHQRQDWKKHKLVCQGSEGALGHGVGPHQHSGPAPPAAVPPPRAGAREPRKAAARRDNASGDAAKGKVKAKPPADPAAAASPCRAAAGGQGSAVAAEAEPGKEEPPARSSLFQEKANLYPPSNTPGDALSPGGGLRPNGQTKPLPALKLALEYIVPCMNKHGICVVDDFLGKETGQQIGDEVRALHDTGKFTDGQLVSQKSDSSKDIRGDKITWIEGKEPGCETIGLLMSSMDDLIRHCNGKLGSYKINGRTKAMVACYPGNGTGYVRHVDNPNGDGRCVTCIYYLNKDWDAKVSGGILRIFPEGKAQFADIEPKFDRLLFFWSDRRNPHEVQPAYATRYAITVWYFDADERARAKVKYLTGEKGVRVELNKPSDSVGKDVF
The PHD2 inhibition assay was executed by addition of freshly dissolved FeCl2 to 178.57 μM (100 μM final concentration) in PHD2 Reaction Buffer containing 30 mM MES, pH 6, 10 mM NaCl, 0.25% Brij-35, 0.01% BSA, and 1% DMSO. 28 μL of the iron solution and 2 μL of inhibitor compounds serially diluted in 100% DMSO (5% DMSO final) were added to black polypropylene 96-well microtiter plates. To that, 10 μL of 10 nM PHD2 (2 nM final) was added to all wells of the plate except for the 8 wells of column 12 (LO control), and allowed to incubate at room temperature on the shaker for one hour. Column 6 was the HI control containing PHD2 enzyme and 5% DMSO vehicle, but no inhibitor compound. To initiate the PHD2 enzymatic reaction, 10 μL of a solution containing 500 nM P564-HIF1α peptide (100 nM final), 10 mM ascorbic acid (2 mM final), and 1.25 μM 2-oxoglutarate (α-ketoglutarate; 0.25 μM final) in PHD2 Reaction Buffer was added to all wells of the plate and allowed to incubate on the shaker at room temperature for one hour.
The reaction was terminated by addition of 25 μL TR-FRET Buffer (50 mM TRIS-HCl, pH 9, 100 mM NaCl, 0.05% BSA, and 0.5% Tween-20) containing 150 mM succinate (product inhibitor; 50 mM final), 75 nM streptavidin-APC (25 nM final), and 7.5 nM VCB-Eu (2.5 nM final). The TR-FRET detection reagents were placed on a shaker for 1 hour to reach binding equilibrium before reading on the Discovery platform (PerkinElmer). Europium is excited at 315 nm and phosphoresces at 615 nm with a large Stoke's shift. APC, in turn, emits at 655 nm upon excitation at 615 nm. The TR-FRET signal is measured as the ratio of the APC 655 nm signal divided by the internal europium reference 615 nm emission signal.
The POC (percentage of control) was determined by comparing the signal from hydroxylated peptide substrate in the enzyme reaction containing inhibitor compound with that from PHD2 enzyme with DMSO vehicle alone (HI control), and no enzyme (LO control). POC was calculated using the formula: % control (POC)=(cpd−average LO)/(average HI−average LO)*100. Data (consisting of POC and inhibitor concentration in μM) was fitted to a 4-parameter equation (y=A+((B−A)/(1+((x/C)^D))), where A is the minimum y (POC) value, B is the maximum y (POC), C is the x (cpd concentration) at the point of inflection and D is the slope factor) using a Levenburg-Marquardt non-linear regression algorithm.
On the technique in general: TR-FRET usually uses a lanthanide donor and a delayed reading to cut background.
As for `O=C(O)CNC(=O)C1=C(O)c2cc(F)ccc2C2(CCOCC2)C1=O` [Example 17, N-((6-Fluoro-4-hydroxy-2-oxo-2′,3′,5′,6′-tetrahydro-spiro[naphthalene-1,4′-pyran]-3-yl)carbonyl)glycine], the IC50 is under 100 nM.
`COc1cccc2c1C(O)=C(C(=O)NCC(=O)O)C(=O)C21CCOCC1` [Example 18, N-((5-Methoxy-4-hydroxy-2-oxo-2′,3′,5′,6′-tetrahydro-spiro[naphthalene-1,4′-pyran]-3-yl)carbonyl)glycine]: the half-inhibitory concentration (IC50) was under 100 nM.
With `COc1ccc2c(c1)C1(CCOCC1)C(=O)C(C(=O)NCC(=O)O)=C2O` [Example 19, N-((4-Hydroxy-7-(methyloxy)-2-oxo-2′,3′,5′,6′-tetrahydro-spiro[naphthalene-1,4′-pyran]-3-yl)carbonyl)glycine], the IC50 was under 100 nM.
`CC1(C)C(=O)C(C(=O)NCC(=O)O)=C(O)c2ccc(OCc3ccccc3)c(F)c21` [Example 20, N-((8-Fluoro-4-hydroxy-1,1-dimethyl-2-oxo-7-((phenylmethyl)oxy)-naphthalen-3-yl)carbonyl)glycine] yielded a half-inhibitory concentration (IC50) of 100 to 500 nM.
On to `CC(C)COc1ccc2c(c1F)C(C)(C)C(=O)C(C(=O)NCC(=O)O)=C2O` [Example 21, N-((8-Fluoro-4-hydroxy-1,1-dimethyl-7-((2-methylpropyl)oxy)-2-oxo-naphthalen-3-yl)carbonyl)glycine], for which the IC50 was in the range of 100 to 500 nM.
For the molecule `COc1ccc2c(c1F)C(C)(C)C(=O)C(C(=O)NCC(=O)O)=C2O` [Example 22, N-((8-Fluoro-4-hydroxy-1,1-dimethyl-7-(methyloxy)-2-oxo-naphthalen-3-yl)carbonyl)glycine], the IC50 fell in the range of 100 to 500 nM.
`CC1(C)C(=O)C(C(=O)NCC(=O)O)=C(O)c2ccc(O)c(F)c21` [Example 23, N-((8-Fluoro-4,7-dihydroxy-1,1-dimethyl-2-oxo-naphthalen-3-yl)carbonyl)glycine]: the half-inhibitory concentration (IC50) was under 100 nM.
The molecule `CC1(C)C(=O)C(C(=O)NCC(=O)O)=C(O)c2ccc(F)c(F)c21` [Example 24, N-((7,8-Difluoro-4-hydroxy-1,1-dimethyl-2-oxo-naphthalen-3-yl)carbonyl)glycine] returned a half-inhibitory concentration (IC50) of under 100 nM.
Consider `O=C(O)CNC(=O)C1=C(O)c2cc(Cl)ccc2C2(CCCC2)C1=O` [Example 25, N-((6′-Chloro-4′-hydroxy-2′-oxo-spiro[cyclopentane-1,1′-naphthalen]-3′-yl)carbonyl)glycine], for which the half-inhibitory concentration (IC50) fell in the range of 100 to 500 nM.
Molecule `CC1(C)C(=O)C(C(=O)NCC(=O)O)=C(O)c2c(C(F)(F)F)cccc21` [Example 26, N-((4-Hydroxy-1,1-dimethyl-2-oxo-5-(trifluoromethyl)-naphthalen-3-yl)carbonyl)glycine] returned a concentration for half-maximal inhibition (IC50) of 100 to 500 nM.
Next, `CC1(C)C(=O)C(C(=O)NCC(=O)O)=C(O)c2cccc(F)c21` [Example 27, N-((8-Fluoro-4-hydroxy-1,1-dimethyl-2-oxo-naphthalen-3-yl)carbonyl)glycine]: under 100 nM; `CC1(C#N)C(=O)C(C(=O)NCC(=O)O)=C(O)c2ccccc21` (stereo not shown) [Example 28, N-((1-Cyano-4-hydroxy-1-methyl-2-oxo-naphthalen-3-yl)carbonyl)glycine]: under 100 nM.
As to `CC1(C)C(=O)C(C(=O)NCC(=O)O)=C(O)c2ccc(Cl)c(Cl)c21` [Example 31, N-((7,8-Dichloro-4-hydroxy-1,1-dimethyl-2-oxo-naphthalen-3-yl)carbonyl)glycine], the 50% inhibitory concentration (IC50) is under 100 nM.
As for `CC1(C)C(=O)C(C(=O)NCC(=O)O)=C(O)c2cc(-c3ccc(F)cc3)ccc21` [Example 32, N-((6-(4-Fluorophenyl)-4-hydroxy-1,1-dimethyl-2-oxo-naphthalen-3-yl)carbonyl)glycine], the IC50 is 100 to 500 nM.
Next, `CSc1ccc2c(c1)C(O)=C(C(=O)NCC(=O)O)C(=O)C2(C)C` [Example 33, N-((4-Hydroxy-1,1-dimethyl-6-(methylthio)-2-oxo-naphthalen-3-yl)carbonyl)glycine]: under 100 nM; `CC1(c2ccc(Cl)cc2)C(=O)C(C(=O)NCC(=O)O)=C(O)c2cc(Cl)ccc21` (stereo not shown) [Example 34, N-((6-Chloro-1-(4-chlorophenyl)-4-hydroxy-1-methyl-2-oxo-naphthalen-3-yl)carbonyl)glycine]: 100 to 500 nM.
`CN(C)c1ccccc1-c1ccc2c(c1)C(O)=C(C(=O)NCC(=O)O)C(=O)C2(C)C` [Example 35, N-((6-(2-(Dimethylamino)phenyl)-4-hydroxy-1,1-dimethyl-2-oxo-naphthalen-3-yl)carbonyl)glycine] had an IC50 of 100 to 500 nM.
Take `CN(C)c1ccc(-c2ccc3c(c2)C(O)=C(C(=O)NCC(=O)O)C(=O)C3(C)C)cc1` [Example 36, N-((6-(4-(Dimethylamino)phenyl)-4-hydroxy-1,1-dimethyl-2-oxo-naphthalen-3-yl)carbonyl)glycine]: the 50% inhibitory concentration (IC50) lay within 100 to 500 nM.
On to `CC1(C)C(=O)C(C(=O)NCC(=O)O)=C(O)c2cc(-c3ccccc3Cl)ccc21` [Example 37], for which the IC50 lay in the range of 500 to 1000 nM.
Next, `CC1(C)C(=O)C(C(=O)NCC(=O)O)=C(O)c2cc(-c3ccc(Cl)cc3)ccc21` [Example 38, N-((6-(4-Chlorophenyl)-4-hydroxy-1,1-dimethyl-2-oxo-naphthalen-3-yl)carbonyl)glycine]: 500 to 1000 nM.
As to `CN(C)c1cccc(-c2ccc3c(c2)C(O)=C(C(=O)NCC(=O)O)C(=O)C3(C)C)c1` [Example 39, N-((6-(3-(Dimethylamino)phenyl)-4-hydroxy-1,1-dimethyl-2-oxo-naphthalen-3-yl)carbonyl)glycine], the IC50 fell in the range of 100 to 500 nM.
`CC1(C)C(=O)C(C(=O)NCC(=O)O)=C(O)c2cc(Br)ccc21` [Example 40, N-((6-Bromo-4-hydroxy-1,1-dimethyl-2-oxo-naphthalen-3-yl)carbonyl)glycine] registered an IC50 of under 100 nM.
On to `CC1(C)C(=O)C(C(=O)NCC(=O)O)=C(O)c2ccc(C#N)cc21` [Example 41, N-((7-Cyano-4-hydroxy-1,1-dimethyl-2-oxo-naphthalen-3-yl)carbonyl)glycine], for which the IC50 is under 100 nM.
Next, `CC1(C)C(=O)C(C(=O)NCC(=O)O)=C(O)c2cc(C#N)ccc21` [Example 42, N-((6-Cyano-4-hydroxy-1,1-dimethyl-2-oxo-naphthalen-3-yl)carbonyl)glycine]: under 100 nM; `CCC1(C)C(=O)C(C(=O)NCC(=O)O)=C(O)c2ccc(Cl)cc21` (stereo not shown) [Example 43, N-((7-Chloro-1-ethyl-4-hydroxy-1-methyl-2-oxo-naphthalen-3-yl)carbonyl)glycine]: 100 to 500 nM; `O=C(O)CNC(=O)C1=C(O)c2ccc(F)cc2C2(CCOCC2)C1=O` [Example 44, N-((7-Fluoro-4-hydroxy-2-oxo-2′,3′,5′,6′-tetrahydro-spiro[naphthalene-1,4′-pyran]-3-yl)carbonyl)glycine]: under 100 nM.
In turn, `O=C(O)CNC(=O)C1=C(O)c2ccc(C(F)(F)F)cc2C2(CCOCC2)C1=O` [Example 45, N-((7-Trifluoromethyl-4-hydroxy-2-oxo-2′,3′,5′,6′-tetrahydro-spiro[naphthalene-1,4′-pyran]-3-yl)carbonyl)glycine] returned a half-maximal inhibitory concentration (IC50) of under 100 nM.
`O=C(O)CNC(=O)C1=C(O)c2ccc(Cl)cc2C2(CCOCC2)C1=O` [Example 46, N-((7-Chloro-4-hydroxy-2-oxo-2′,3′,5′,6′-tetrahydro-spiro[naphthalene-1,4′-pyran]-3-yl)carbonyl)glycine]: the IC50 was under 100 nM.
The molecule `CC1(C)C(=O)C(C(=O)NCC(=O)O)=C(O)c2ccc(F)cc21` [Example 47, N-((7-Fluoro-4-hydroxy-1,1-dimethyl-2-oxo-naphthalen-3-yl)carbonyl)glycine] displayed a concentration for half-maximal inhibition (IC50) of under 100 nM.
Consider `CC1(C)C(=O)C(C(=O)NCC(=O)O)=C(O)c2ccc(Cl)cc21` [Example 48, N-((7-Chloro-4-hydroxy-1,1-dimethyl-2-oxo-naphthalen-3-yl)carbonyl)glycine], for which the IC50 is under 100 nM.
The molecule `CC1(C)C(=O)C(C(=O)NCC(=O)O)=C(O)c2ccc(C(F)(F)F)cc21` [Example 49, N-((7-Trifluoromethyl-4-hydroxy-1,1-dimethyl-2-oxo-naphthalen-3-yl)carbonyl)glycine] had a concentration for half-maximal inhibition (IC50) of under 100 nM.

The values above are taken from patent US7928139B2 (Amgen Inc., priority 2006, dated 2011).
